Test results reported in patent US4166852A, “Piperazino-pyrimidines and their use as spasmolytic agents” (priority 1974, dated 1979).
Values after ≈ are worked out from the molar mass of the structure shown. Counter-ions that a name gives are not always drawn. Like-named read-outs stand apart in the source and are kept apart here.

Key:
[1] = test system: isolated duodenum of the rabbit (acetylcholine); experiment: spasmolytic effect on isolated duodenum, acetylcholine spasm; type: cell-based; settings: Oryctolagus cuniculus, read-out: Spasmolytic effects EC 50 with respect to acetylcholine
From the text: (§1) Ges. Physiol., 102, 123, (1904) with respect to the spasms of the isolated duodenum of rabbits caused either by acetylchlorine for the spasmolytic nemotropes or by barium chloride for the spasmolytic musculotropes.

dogs = experiment: anti-emetic activity, apomorphine vomiting test on dogs; type: in vivo; settings: Canis lupus familiaris, po, dogs, orally, apomorphine; read-out: Anti-emetic activity on dogs ED 50
From the text: The anti-emetic properties of the compounds according to the invention have been shown by oral administration of apomorphine to dogs in the vomiting test according to G. Chen and C. J. Ensor, Pharmacol. exp. Therap., 98, 24 (1950).

[2] = acute toxicity, LD 50, CD 1 mice; type: in vivo; settings: mouse, in vivo
From the text: The acute toxicities of the compounds according to the invention have been determined on CD 1 (Charles RIVER) mice by intravenous and oral methods. The LD 50 of each compound has been calculated by the cumulative method of J. J. Reed and H. Muench, (Amer. J. Hyg., 1938, 27, 493).

[3] = test system: isolated duodenum of the rabbit (barium chloride); experiment: spasmolytic effect on isolated duodenum, barium chloride spasm; type: cell-based; settings: Oryctolagus cuniculus, read-out: Spasmolytic effects EC 50 with respect to barium chloride
From the text: as §1

mice = experiment: analgesic activity, painful abdominal torsions test with phenylbenzoquinone; type: in vivo, CD 1 (Charles RIVER) mice; settings: Mus musculus, po; mice, orally; read-out: Phenylbenzoquinone test on mice AD 50
From the text: The analgesic properties of the products according to the invention have been shown with CD 1 (Charles RIVER) mice in the painful abdominal torsions test with phenylbenzoquinone according to the technique of E. Siegmund, R. Cadmus and Go.Lu--Proc. Soc. Exp. Biol. Med., 95, 729, (1957).

head twitch = experiment: anti-serotonine activity, head twitch; type: in vivo, CD 1 (Charles RIVER) mice; settings: Mus musculus, po; mice, orally; read-out: "Head-twitch" AD 50
From the text: The anti-serotonine activities of the compounds according to the invention have been shown by oral administration to the CD (Charles RIVER) rats using the technique of the serotonine plantar oedema (W. Theobald and R. Domenjoz--Arzneimittel Forsch, 8, 18, 1958 and with the CD 1 (Charles RIVER) mice using the technique known as "head twitch" according to S. J. Corne, R. W. Pickering and B. T. Warner, Brit. J. Pharmacol., 20, 106, (1963). The anti-serotonine activity has also been determined on the one hand on the tricoloured guinea-pig, given intravenously, according to a method derived from H. Konzet and R. Rossler, Arch. exp. Pathol, Pharmakol., 195, 71, (1940) and on the other hand in vitro with respect to the serotonine spasm of the isolated uterus of the rat according to the technique of A. Fanchamps, W. Doepfener, H. Weidman and A. Cerletti, Schw. Med. Worsch, 90, 1940, (1960).

[4] = intravenous, read-out: Acute toxicity for mice LD 50, intravenous
[5] = oral, read-out: Acute toxicity for mice LD 50, orally

| SMILES | EC50 [1] [µg/mL] | ED50 (dogs) [mg/kg] | LD50 [2, 4] [mg/kg] | LD50 [2, 5] [mg/kg] | EC50 [3] [µg/mL] | ED50 (mice) [mg/kg] | ED50 (head twitch) [mg/kg] |
| --- | --- | --- | --- | --- | --- | --- | --- |
| CNc1nc(Cl)c(SC)c(N2CCN(CCO)CC2)n1 [Example 8, 2-Methylamino-4-N-(β-hydroxyethyl)-piperazino-6-chloro-5-methylthio-pyrimidine] | 5 (≈ 15.7 µM) | 0.25 | 124 | ~525 | 1.3 (≈ 4.09 µM) |  |  |
| CCN(CC)c1nc(Cl)c(SC)c(N2CCN(C)CC2)n1 [Example 15, 2-N-diethylamino-4-N-methylpiperazino-5-methylthio-6-chloro-pyrimidine dihydrobromide] | 5 |  | 123 | ~600 | 4 | 300 |  |
| CSc1c(Cl)nc(NC(C)(C)C)nc1N1CCN(C)CC1 [Example 3, 2-t-butylamino-4-N-methylpiperazino-5-methylthio-6-chloro-pyrimidine] | 2.5 (≈ 7.58 µM) |  | 67 | ~600 | 0.5 (≈ 1.52 µM) |  | 300 |
| CSc1c(Cl)nc(N(C)c2ccccc2)nc1N1CCN(C)CC1 [Example 12, 2-(N-methyl-N-phenyl)amino-4-N-methylpiperazino-5-methylthio-6-chloro-pyrimidine hydrochloride] | 3 |  | 113 | ~525 | 2.2 | 100 |  |
| CCCOc1nc(NC)nc(N2CCN(C)CC2)c1SC [Example 18, 2-Methylamino-4-N-methylpiperazino-5-methylthio-6-propoxy-pyrimidine hydrochloride] | > 5 | 3.9 | 63 | ~525 | 2.1 |  |  |
| CSc1c(Cl)nc(N2CCCCC2)nc1N1CCN(C)CC1 [Example 11, 2-Piperidino-4-methylpiperazino-5-methylthio-6-chloro-pyrimidine hydrochloride] | 2.5 |  | 115 | ~525 | 2.2 |  |  |
| CSc1c(Cl)nc(NC(C)C)nc1N1CCN(C)CC1 [Example 2, 2-Isopropylamino-4-N-methyl-piperazino-6-chloro-5-methylthio-pyrimidine] | 5 (≈ 15.8 µM) | 0.12 | 79 | ~525 | 1.2 (≈ 3.8 µM) | 65 |  |
| CNc1nc(Cl)c(SC)c(N2CCN(c3ccccc3)CC2)n1 [Example 7, 4-N-phenylpiperazino-2-methylamino-6-chloro-5-methylthio-pyrimidine] |  |  |  |  |  |  | 400 |
| CSc1c(Cl)nc(N2CCN(C)CC2)nc1N1CCN(C)CC1 [Example 9, Bis-2,4-(N-methylpiperazino)-6-chloro-5-methylthio-pyrimidine hydrochloride] | > 10 |  | 83 | ~675 | 3.6 | 150 | 300 |
